How the values were obtained:
[1] = test system: B cell lymphoma cell KARPAS422; experiment: Analysis of cell proliferation; format: cell-based; settings: Homo sapiens, KARPAS-422, 336 h; KARPAS422, after 14 days of treatment; read-out: antiproliferative activities (IC50 values)
Experimental: Analysis of Cell Proliferation
B cell lymphoma cell KARPAS422 was cultured using standard cell culture conditions in RPMI-1640 (Invitrogen, cat #11875) supplemented with 15% FBS (Invitrogen, cat #10099-141) in humidified incubator at 37° C., 5% CO2. To assess the effect of PRC2 inhibition on cell proliferation, exponentially growing cells were seeded at a density of 1×10^5 cells/mL in 12-well plate (Corning, cat #CLS3513). After cell seeding, a compound of the present invention was added to the cell media (in concentrations ranging from 0 to 100 μM, 3× dilution series). Viable cell numbers were determined every 3-4 days for up to 14 days using Vi-CELL (Beckman Coulter). On days of cell counting, fresh growth media and compound were replenished and cells split back to a density of 1×10^5 cells/mL. Total cell number is expressed as split-adjusted viable cells per mL. The dose response curves and IC50 values were generated using Prism.

[2] = Rodent pharmacokinetic studies, exposure versus dose; format: in vivo; settings: higher doses
[3] = test system: H3K27 methylation in G401 cell; experiment: ELISA (H3K27 methylation) assay; format: cell-based; settings: Homo sapiens, G-401; ELISA Qualified, G401 cells, 48 h; read-out: (c) IC50
Experimental: ELISA (H3K27 Methylation) Assay
Representative compounds of the present invention were serially and separately diluted 3-fold in DMSO to obtain a total of eight or twelve concentrations. Then the compounds were added to G401 cell cultured in 384-well plate at 1:500 dilution to obtain the highest concentration of 20 μM. The cells were further cultured for 48 h before ELISA procedure.
Histone extraction: Cells, in 384-well plate, were washed with PBS (10×PBS buffer (80 g NaCl (Sigma, S3014), 2 g KCl (Sigma, 60128), 14.4 g Na2HPO4 (Sigma, S5136), 2.4 g KH2PO4 (Sigma, P9791) to 1 L water, pH to 7.4) and lysed with the addition of lysis buffer (0.4N HCl; 45 μL per well). The plate was gently agitated at 4° C. for 30 min. The cell lysate was neutralized with neutralization buffer (0.5 M sodium phosphate dibasic, pH 12.5, 1 mM DTT; 36 μL per well). The plate was agitated to ensure the lysates were well mixed prior to the ELISA protocol.
ELISA protocol: Cell lysates were transferred to the wells of a 384-well plate and the final volume was adjusted to 50 μL per well with PBS. The plate was sealed, centrifuged at 2,000 rpm for 2 min and incubated at 4° C. for about 16 h. […] The signal was read using a PerkinElmer Envision Reader. The H3K27 methylation readouts were normalized using H3 signal and then percentage inhibition was calculated against the samples treated with DMSO. […]

[4] = Solubility in selected solvents (Table 2); format: physicochemical; settings: thermodynamic from solid; for solubility at 2 h: 50° C.; for solubility: rt
Experimental: To 10 mg of compound X in a sample vial at 50° C., selected solvent was added dropwise. The addition of solvent was stopped when a clear solution was reached or when the amount of solvent reached 1 mL. The resulting mixture was stirred continuously at 50° C. for 2 h, then cooled to rt, and stirred overnight. The solubilities at 50° C. and rt were determined by the homogeneity of the resulting mixture.

[5] = Aqueous solubility (pH 7.4, simulated gastric fluid); format: physicochemical
[6] = Stability of solid form to humidity and temperature; format: physicochemical
Experimental: Dynamic vapor sorption was performed on a Surface Measurement Systems DVS Advantage instrument. Approximately 10 mg of material was loaded into a sample pan. The samples were exposed to sorption/desorption cycles in 10% relative humidity (RH) steps over the range of 50%-90%-0%-90%-50% RH at 25° C. and 50° C. A target equilibrium condition of mass change less than 0.002% over 5 min was set, with minimum and maximum equilibrium periods of 10 and 360 min, respectively. The carrier gas was nitrogen with a flow rate of 100 mL/min. The system is calibrated with saturated salt solutions. The weight percentage change (wt %) of the sample at each stage was measured and plotted versus the target partial pressure.

[7] = aqueous with cosolvent or surfactant or cyclodextrin, Acetone/H2O (1/1)
[8] = aqueous with cosolvent or surfactant or cyclodextrin, EtOH/H2O (1/1)
[9] = organic solvent or mixture, ACN
[10] = organic solvent or mixture, Acetone
[11] = organic solvent or mixture, EtOAc
[12] = organic solvent or mixture, EtOH
[13] = organic solvent or mixture, Heptane
[14] = organic solvent or mixture, IPA
[15] = organic solvent or mixture, MTBE
[16] = organic solvent or mixture, MeOH
[17] = organic solvent or mixture, THF

With Cc1ncccc1-c1cnc(NCc2c(F)ccc3c2CCO3)n2cnnc12 [Compound A, N-((5-Fluoro-2,3-dihydrobenzofuran-4-yl)methyl)-8-(2-methylpyridin-3-yl)-[1,2,4]triazolo[4,3-c]pyrimidin-5-amine] the IC50 [1] was 3 nM, the “exposure relative to dose” value [2] was “under-proportional” and the IC50 [3] was 2.6 nM. For the same compound, the solubility at 2 h [4, 7] was less than 10000 µg/mL, the solubility [4, 7] was less than 10000 µg/mL and the solubility at 2 h [4, 8] was less than 10000 µg/mL. For the same compound, the solubility [4, 8] was less than 10000 µg/mL, the solubility at 2 h [4, 9] was less than 10000 µg/mL and the solubility [4, 9] was less than 10000 µg/mL. The solubility at 2 h [4, 10] was less than 10000 µg/mL, the solubility [4, 10] was less than 10000 µg/mL and the solubility at 2 h [4, 11] was less than 10000 µg/mL. It also gave a solubility [4, 11] of less than 10000 µg/mL, a solubility at 2 h [4, 12] of less than 10000 µg/mL and a solubility [4, 12] of less than 10000 µg/mL. It also gave a solubility at 2 h [4, 13] of less than 10000 µg/mL, a solubility [4, 13] of less than 10000 µg/mL and a solubility at 2 h [4, 14] of less than 10000 µg/mL. It also gave a solubility [4, 14] of less than 10000 µg/mL, a solubility at 2 h [4, 15] of less than 10000 µg/mL and a solubility [4, 15] of less than 10000 µg/mL. It also gave a solubility at 2 h [4, 16] of less than 10000 µg/mL, a solubility [4, 16] of less than 10000 µg/mL and a solubility at 2 h [4, 17] of less than 10000 µg/mL. The solubility [4, 17] was less than 10000 µg/mL, the solubility at 2 h ([4]; Water) was less than 10000 µg/mL and the solubility ([4]; Water) was less than 10000 µg/mL. The aqueous solubility ([5]; physiologically relevant pH level of 7.4) was “low” and the aqueous solubility ([5]; simulated gastric fluid (SGF)) was “low”.

With Cc1ncccc1-c1cnc(NCc2c(F)ccc3c2CCO3)n2cnnc12.Cl [Compound X, N-((5-Fluoro-2,3-dihydrobenzofuran-4-yl)methyl)-8-(2-methylpyridin-3-yl)-[1,2,4]triazolo[4,3-c]pyrimidin-5-amine hydrochloride] the “exposure relative to dose” value [2] was “dose-proportional”, the solubility at 2 h [4, 7] was greater than 50000 µg/mL and the solubility [4, 7] was less than 50000 µg/mL. It also gave a solubility at 2 h [4, 8] greater than 50000 µg/mL, a solubility [4, 8] of less than 50000 µg/mL and a solubility at 2 h [4, 9] of less than 10000 µg/mL. It also gave a solubility [4, 9] of less than 10000 µg/mL, a solubility at 2 h [4, 10] of less than 10000 µg/mL and a solubility [4, 10] of less than 10000 µg/mL. It also gave a solubility at 2 h [4, 11] of less than 10000 µg/mL, a solubility [4, 11] of less than 10000 µg/mL and a solubility at 2 h [4, 12] of less than 10000 µg/mL. It also gave a solubility [4, 12] of less than 10000 µg/mL, a solubility at 2 h [4, 13] of less than 10000 µg/mL and a solubility [4, 13] of less than 10000 µg/mL. It also gave a solubility at 2 h [4, 14] of less than 10000 µg/mL, a solubility [4, 14] of less than 10000 µg/mL and a solubility at 2 h [4, 15] of less than 10000 µg/mL. It also gave a solubility [4, 15] of less than 10000 µg/mL, a solubility at 2 h [4, 16] greater than 10000 µg/mL and a solubility [4, 16] greater than 10000 µg/mL. The solubility at 2 h [4, 17] was less than 10000 µg/mL, the solubility [4, 17] was less than 10000 µg/mL and the solubility at 2 h ([4]; Water) was less than 10000 µg/mL. It also gave a solubility ([4]; Water) of less than 10000 µg/mL.

In the case of Cc1ncccc1-c1cnc(NCc2c(F)ccc3c2CCO3)n2cnnc12.Cl [Form HA, N-((5-Fluoro-2,3-dihydrobenzofuran-4-yl)methyl)-8-(2-methylpyridin-3-yl)-[1,2,4]triazolo[4,3-c]pyrimidin-5-amine hydrochloride], the “stability to humidity and temperature” value [6] is reported as “acceptable stability”.

— patent publication US11548897B2, “Crystalline forms of a triazolopyrimidine compound” (NOVARTIS AG, priority 2016, dated 2023)
